Reference: a melting point compilation (Tetko et al.; mined from patent text by program, amines drawn as free bases though some values may be those of a salt)

SMILES | melting point
CON=Cc1ccc2c(c1)ncn2-c1cccc(-c2ncccn2)c1 | 158 to 159 °C
COc1ccc(CS[C@H]2C[C@@H](C(N)=O)N(CCF)C2)cc1 | 122 to 123 °C
O=S(=O)(Nc1ccc2c(OCc3ccc(-c4ccccc4)cc3F)cccc2c1)C(F)(F)F | 123 to 125 °C
CCN(CC)CCNC(=O)c1cccc2nc3cc(I)ccc3nc12 | 140 to 142 °C
CCCn1c(=O)c2c(nc(/C=C/c3ccc(OCC)c(OCC)c3)n2C)n(CCC)c1=O | 174 °C
Cc1ccccc1CNC(=O)[C@@H]1CSCN1C(=O)[C@@H](O)[C@H](Cc1ccccc1)NC(=O)C(C)C(C)C(=O)OC[C@H]1O[C@@H](n2cc(C)c(=O)[nH]c2=O)CC1N=[N+]=[N-] (stereo partly drawn) | 114 to 115 °C
COC1CCN(S(=O)(=O)c2ccc(S(=O)(=O)Cl)cc2C(F)(F)F)CC1 | 117 to 119 °C
CCCC(=O)NCCc1cccc2ccc(SC)cc12 | 55 to 57 °C
CCC(CC)Oc1nc(C)nc(Nc2c(C)cc(C)cc2C)c1C(=O)O | 118 to 120 °C
COc1cc2ccc3nc4ccccc4cc3c2cc1OC | 190 to 192 °C
CCSc1nc2c(C)sc(C(=O)O)c2n1Cc1ccc(-c2ccccc2-c2nc(=O)[nH]o2)cc1 | 144 to 147 °C
COc1ccc(Br)c(-n2c(=O)[nH]c(=O)n(C)c2=O)c1 | 185 to 187 °C
O=c1nc(-c2ccc(-c3ccccc3)cc2)sc2ccccc12 | 170 to 171 °C
CCOc1ccc(C2=NN(C3CCN(C(=O)CCl)CC3)C(=O)[C@@H]3CC=CC[C@H]23)cc1OCC | 135 to 136 °C
COc1ccc(CCn2cnc3ccc(-c4cccc(C(=O)NCCN5CCCC5)c4)nc32)cc1OC | 106 to 107 °C
COc1ccc(SC2CC(=O)N2CC(=O)NCCCCCCc2ccc(Cl)cc2)cc1 (stereo not drawn) | 84 to 86 °C
CCOC(=O)C1=C(C)NN=C(CC)C1c1cccc(OC)c1 (stereo not drawn) | 89 °C
COc1c(Cl)ccc(-c2cc(N)c(Cl)c(C(=O)NOCc3cncs3)n2)c1F | 179 to 181 °C
COc1ccc(C2CN(O)C3(C)CCCCC23)cc1OC (stereo not drawn) | 147 to 149 °C
O=C1Nc2ccc(Cl)cc2C1CC1CCCCC1 (stereo not drawn) | 152 to 153 °C
CC1(C)C(=O)Nc2cc3[nH]c(-c4ccnnc4)nc3cc21 | > 360 °C
Fc1ccc(C(c2ccc(F)cc2)N2CCN(CCCSc3ncnc4nc[nH]c34)CC2)cc1 | 90 to 93 °C
CC(=O)Nc1cccc2c1CCC(NC(C)c1ccccc1)C2 (stereo not drawn) | 158 °C
CCc1ccc(NC(=S)SC)cc1 | 78 °C
CC(C)CNC(=S)Nc1cc(Cl)cc(Cl)c1 | 144 °C
CCOC(=O)c1ccc(N(C)Cc2ccc(Cl)cc2)cc1 | 106 to 107 °C

SMILES | melting point
O=C(O)[C@H](Cc1ccc(O)cc1)NC(=O)C1(NC(=O)C2(S)CCCC2)CCCC1 | 90 °C
CC(C)(O)Cn1cnc2c(Cl)nc3ccccc3c21 | 196 to 199 °C
CC(C)(C)c1cc(-c2nc3ncccc3o2)cc(C(C)(C)C)c1 | 154 to 156 °C
CC(C)c1c(Cl)nc(Cl)nc1Cl | 69.4 °C
O=c1nc(-c2cccc(C(F)(F)F)c2)sc2ccccc12 | 115 °C
CC(C)Sc1cc(SC(C)C)c2ccc3c(SC(C)C)cc(SC(C)C)c4ccc1c2c43 | 108 °C
CC(C)(CO)c1ccc(C(=O)Nc2cn3cc(-c4cn[nH]c4)ccc3n2)cc1 | 293 to 296 °C
CC(c1oc2ccccc2c(=O)c1-c1cccc(F)c1)n1nc(-c2ccc(O)c(F)c2)c2c(N)ncnc21 (stereo not drawn) | 244 to 247 °C
N#CCC(=O)Nc1ccc(C(F)(F)F)cc1 | 194 to 196 °C
COc1ccc(Nc2ccc(OCc3ccccc3)cc2)cc1 | 108 °C
Cn1nc(-c2c(Cl)cccc2Cl)nc1-c1cccnc1Cl | 133 to 136 °C
COC(=O)c1cc(OC)c(OC)c2c1C=CCO2 | 88.5 to 90 °C
CN(C)c1ccc(-c2cccc(OC3SCC(O)C(O)C3O)c2)cn1 (stereo not drawn) | 119 °C
COc1ccc(C2c3c(C)c(NC(=O)CC(C)(C)C)c(C)c(C)c3OC2(C)C)cc1 (stereo not drawn) | 175 to 176 °C
Oc1nsnc1-c1c(Cl)cccc1Cl | 194 to 195 °C
Cc1nc2c(O)c(CCC(=O)c3ccc(F)cc3)c(C(=O)N(C)C)cc2n1C | 248 to 249 °C
COc1cc2c(cc1OCc1ccccc1)C(C#N)(Sc1ccccc1)C2 (stereo not drawn) | 109 to 110 °C
CCOC(=O)c1cc(S(N)(=O)=O)c(Cl)cc1NCc1ccco1 | 163 to 165 °C
Clc1ccc(NC2COc3ccc(Br)cc32)c(Cl)c1 (stereo not drawn) | 112 to 113 °C
CN1C(=O)N(c2cc(Cl)nc(Cl)c2)C(=O)/C1=C\c1ccc(C#N)cc1 | 230 °C
Cc1cc(OCc2ccccc2)c(C)cc1OCCCC(C)(C)C(=O)O | 104 to 106 °C
COc1ccc2c3c1OC1C4(CCC5(F)C(C2)N(C(=O)C2CC2)CCC315)OCCO4 (stereo not drawn) | 191 to 193 °C
CCCCCC(=N)NC(=O)Nc1ccc(Cl)cc1 | 175 to 179 °C
COc1cc(CO)c(CO)cc1OCCCl | 93 to 94 °C
COc1cc(N2CCCN(C3CCN(C)CC3)CC2)ccc1Nc1ncc2ccc(-c3ccccc3OC)n2n1 | 71 to 80 °C
Cc1sc2c(c1C)C(C1CCCCC1)=NCC(=O)N2 | 205 °C

SMILES | melting point
CC(=O)Oc1ccc2c(c1)COC(C(Cl)(Cl)Cl)N2 (stereo not drawn) | 155 to 157 °C
C1=C(c2ccc(-n3ccnc3)cc2)CCNC1 | 150 to 153 °C
CP(=O)(O)C(CCc1ccccc1)NC(=O)C(F)(F)F (stereo not drawn) | 138 to 145 °C
COc1ccc(Nc2nc(Cl)nc(NC3CC3)n2)cc1F | 186 °C
COc1ccc(-c2sc(N)c(C(=O)c3ccc(Cl)cc3)c2CN(C2CCCCC2)C2CCCCC2)cc1 | 178 to 182 °C
CC=C(NC(=O)C1CC1(Cl)Cl)C(=O)O (stereo not drawn) | 188 to 190 °C
CC=CCN(C)c1ncnc2c1ncn2C1OC(CO)C(O)C1O (stereo not drawn) | 160 to 162 °C
COc1ccc(Nc2ccc(Nc3ncnc4cc(-c5ccccc5)sc34)cc2)cc1OC | 160 to 161 °C
Cc1cc(-c2cc(Cl)ccc2Cl)n2ncc(C#N)c2n1 | 229 to 230 °C
CCOC(=O)Cc1cccc(N)c1 | 135 °C
CN(C)c1nc(O)cc(O)n1 | > 300 °C
CN(CC(=O)Nc1ccc2[nH]ncc2c1)Cc1ccccc1 | 159 to 160 °C
O=C(O)CCn1c(=O)n2n(c1=O)C(C(=O)O)C=CC2 (stereo not drawn) | 172 to 175 °C
O=C(c1ccc(Cl)cc1)c1cccc(O)c1 | 154 °C
CCCc1nc2c(N)nc3cc(OCCCNS(C)(=O)=O)ccc3c2n1CC(C)C | 166 to 168 °C
O=C(NCCc1ccccc1)Nc1ccc([N+](=O)[O-])cc1O | 189 °C
CCCCCCCCCCCCc1c[nH]c(C(=O)O)c1 | 152 to 153 °C
Cc1cc(SC2=C(O)C[C@@](CCc3cccc(O)c3)(C3CCCC3)OC2=O)c(C(C)(C)C)cc1CO | 128 to 132 °C
Cc1c(-c2ncc([N+](=O)[O-])n2C)cnn1-c1ccc(Cl)cc1 | 164 °C
CN(C)c1cc2nc(C(C)(C)C)sc2cc1[N+](=O)[O-] | 65 to 68 °C
CC(=O)Oc1c(C(C)(C)C)cc2c(c1C(C)(C)C)CC(C)(C)O2 | 97.7 °C
O=Cc1c2n(c3cc4c(cc13)OCO4)CCC2 | 169 to 170 °C
C#CCOc1ccc2c(c1)c(-c1ccc(C(C)C)cc1)nc(=O)n2Cc1cccc(NC(=O)CCl)c1 | 170 to 172 °C
CC(=O)OC1CSC(Oc2cnccc2-c2cccnc2)C(OC(C)=O)C1OC(C)=O (stereo not drawn) | 159 °C
CCOC(=O)Cc1cccc(Oc2ccccc2Cl)c1NS(C)(=O)=O | 145 to 149 °C
CC(CCC(=O)O)C(=O)N1c2ccccc2CCC1C(=O)O (stereo not drawn) | 117 to 119 °C

SMILES | melting point
CCc1nc(-c2ccc(OCCCc3ccccc3)cc2)no1 | 41 to 42 °C
Cc1c(F)cccc1Cc1c(-c2ccccc2)c2cccnn2c1C(=O)N1CCNCC1 | 140 to 142 °C
CNCc1ccc(S(C)(=O)=O)c(S(=O)(=O)NC(C)(C)C)c1 | 76 to 78 °C
C=C(C)COc1cc(C)c(NC(C)=O)cc1C | 128 to 132 °C
CCCOC1=CC(=O)C(C(=O)OCC)C(c2ccc(C)cc2)C1 (stereo not drawn) | 106 to 107 °C
COc1ccc(CC[C@H]2CNCCN2)cc1 | 125 to 130 °C
O=C(O)C(CN1CCCC1)C(C(=O)O)P(=O)(O)O (stereo not drawn) | 122 to 124 °C
O=c1[nH]nc(-c2cccc(C(F)(F)F)c2)c2ncccc12 | 210 to 215 °C
CC1OC1COc1ccc(C(=O)OC(C)(C)C)cc1 (stereo not drawn) | 47 to 48 °C
CN1C[C@H](O)C[C@H]1CCOc1ccc(Cl)cc1CCc1ccccc1 | 65 to 68 °C
COC(=O)CC1CCc2cc(OC)ccc2C1=O (stereo not drawn) | 110 to 112 °C
CN1C(=O)C2CC(c3ccccc3)(C2)C1=O | 175 to 176 °C
CC(C)c1ccc(NC(=O)Nc2cccc(C(=O)O)c2)cc1 | 295 to 300 °C
Cn1c(C(F)(F)F)cc(=O)n(-c2ccc3snc(N4CCOCC4)c3c2)c1=O | 200 to 205 °C
N#Cc1c(OCCO)cccc1[N+](=O)[O-] | 140 to 142 °C
CC1OC(Cn2cncn2)(c2ccc(Cl)cc2Cl)C1(C)C (stereo not drawn) | 118 to 125 °C
Cn1cc(C2=C(c3cn(CCCNc4ccc([N+](=O)[O-])cn4)c4ccccc34)C(=O)NC2=O)c2ccccc21 | 245 to 247 °C
O=c1oc2ccc(Cc3ccccc3)cc2c(O)c1CCCOc1ccccc1 | 149 to 150 °C
CN1C2CCC1CN(c1ccc(Br)nn1)C2 | 118 to 120 °C
CC(=O)c1sc(Nc2cc[nH]n2)nc1C | 224 to 227 °C
CC(C)C[C@H](NC(=O)[C@H](Cc1c[nH]cn1)NC(=O)[C@H](Cc1cccc2ccccc12)NC(=O)OCc1ccccc1)[C@@H](O)CCO | 196 to 198 °C
COc1cc(OC)c2c(=O)[nH]c(-c3ccc(N4CCC(O)CC4)cc3)nc2n1 | 284 to 286 °C
N#Cc1ccc(-c2cc(-c3ccc(C#N)cc3[N+](=O)[O-])on2)cc1 | 280 to 281 °C
O=C1CCCc2ccc(OCCCCN3CCN(c4cccc5c4OCCC5)CC3)nc2N1 | 186 to 187 °C
COc1ccc2cc(C(C)C(=O)O)ccc2c1Br (stereo not drawn) | 149 to 151 °C
